Results as given in patent US8388990B2, “Acidified chlorite compositions containing nitrogenous stabilizers and systems and methods related thereto” (Ecolab USA Inc., priority 2002, dated 2013).
Read-outs that look alike come from different tables or passages of the source. Each block holds one molecule with its values, some of them ahead of it.

How the values were obtained:
[1] = for Percent of Initial NaClO2 Remaining 2 Hours after Mixing / Percent of Initial NaClO2 Remaining 5 Hours after Mixing: buffer
[2] = Assay for measuring the Reduced Chlorite Demand Factor (Example 9); format: physicochemical; settings: pH 2.5
[3] = Chlorine dioxide generation by UV/Visible spectrophotometry at 360 nm (Example 6); format: physicochemical; settings: pH 2.5, no colorant
[4] = buffer, pH 2.5
[5] = Colorant effect on chlorite consumption (Example 2); format: physicochemical; settings: disinfecting composition A of Example 1 with essentially equimolar colorant: 0.41% Blue #1, 0.26% Blue #2, 0.30% Yellow #5, 0.25% Yellow #6, 0.28% Red #40
Method: To determine how increasing levels of colorant causes a more rapid consumption of chlorite, the disinfecting composition A of Example 1 was prepared with either 0% (control), 0.03%, 0.15%, 0.30% or 0.60% by weight FD&C Yellow #5.
This experiment was then repeated using essentially equimolar concentrations of the following FD&C colorants: 0.41% Blue #1, 0.26% Blue #2, 0.30% Yellow #5, 0.25% Yellow #6, 0.28% Red #40 and no colorant (control).

[6] = Effect of nitrogenous stabilizer on chlorite consumption in a nil colorant composition (Example 7); format: physicochemical
[7] = composition with FD&C Yellow #5, pH 2.5, versus control
[8] = stabilizer at 1.33 M, five hours after mixing, versus control without stabilizer
[9] = level (Wt %): ethylenediamine 1.0, monoethanolamine 2.0, glycine 2.5

- effect on rate of sodium chlorite consumption / chlorite longevity (in words) [1, 7]: solid chlorite longevity benefits
Molecule: NCS(=O)(=O)O [Aminomethanesulfonic Acid]

- Reduced Chlorite Demand Factor [2, 8]: 0.9
Molecule: OCCNCCO [Diethanolamine]

- Level of ClO2 after 1 hour [3, 9]: 35 ppm
- Reduced Chlorite Demand Factor [2, 8]: 4.0
- Percent of Initial NaClO2 Remaining 2 Hours after Mixing ([1]; pH 2.5): 92%
- Percent of Initial NaClO2 Remaining 5 Hours after Mixing ([1]; pH 2.5): 80%
- Percent of Initial Colorant Remaining 2 Hours after Mixing [4]: 91%
Molecule: NCCN [Ethylenediamine]

- Level of ClO2 after 1 hour [3, 9]: 105 ppm
- Reduced Chlorite Demand Factor [2, 8]: 3.8
- Percent of Initial NaClO2 Remaining 2 Hours after Mixing ([1]; pH 2.5): 78%
- Percent of Initial NaClO2 Remaining 5 Hours after Mixing ([1]; pH 2.5): 42%
- Percent of Initial Colorant Remaining 2 Hours after Mixing [4]: 61%
Molecule: NCC(=O)O [Glycine]

- effect on rate of sodium chlorite consumption / chlorite longevity (in words) [1, 7]: particularly effective
Molecule: CNS(=O)(=O)O [Methylsulfamic Acid]

- Level of ClO2 after 1 hour [3, 9]: 66 ppm
- Reduced Chlorite Demand Factor [2, 8]: 4.1
- Percent of Initial NaClO2 Remaining 2 Hours after Mixing ([1]; pH 2.5): 86%
- Percent of Initial NaClO2 Remaining 5 Hours after Mixing ([1]; pH 2.5): 45%
- Percent of Initial Colorant Remaining 2 Hours after Mixing [4]: 49%
Molecule: NCCO [Monoethanolamine]

- Reduced Chlorite Demand Factor ([2]; tested at 0.5% due to lower solubility, five hours after mixing): 5.6
- effect on rate of sodium chlorite consumption / chlorite longevity (in words) [1, 7]: promote greater chlorite longevity
Molecule: Nc1ccc(S(N)(=O)=O)cc1 [Sulfanilamide]

- effect on rate of sodium chlorite consumption / chlorite longevity (in words) [1, 7]: solid chlorite longevity benefits
Molecule: NCCS(=O)(=O)O [Taurine]

- Reduced Chlorite Demand Factor [2, 8]: 4.3
- effect on rate of sodium chlorite consumption / chlorite longevity (in words) [1, 7]: provides longevity benefits
Molecule: NC(N)=O [Urea]

More lines, now with the values behind:

Molecule: Nc1ccccc1 [Aniline]
- effect on rate of sodium chlorite consumption / chlorite longevity (in words) [1, 7]: promote greater chlorite longevity

Molecule: CCN(Cc1cccc(S(=O)(=O)[O-])c1)c1ccc(C(=C2C=CC(=[N+](CC)Cc3cccc(S(=O)(=O)[O-])c3)C=C2)c2ccccc2S(=O)(=O)[O-])cc1.[Na+].[Na+] [FD&C Blue #1]
- Percent of Initial NaClO2 Remaining 5 Hours after Mixing [5]: <2%

Molecule: O=C1/C(=C2\Nc3ccc(S(=O)(=O)[O-])cc3C2=O)Nc2ccc(S(=O)(=O)[O-])cc21.[Na+].[Na+] [FD&C Blue #2]
- Percent of Initial NaClO2 Remaining 5 Hours after Mixing [5]: 43%

Molecule: COc1cc(S(=O)(=O)[O-])c(C)cc1N=Nc1c(O)ccc2cc(S(=O)(=O)[O-])ccc12.[Na+].[Na+] [FD&C Red #40]
- Percent of Initial NaClO2 Remaining 5 Hours after Mixing [5]: 60%

Molecule: O=C([O-])C1=NN(c2ccc(S(=O)(=O)[O-])cc2)C(=O)C1N=Nc1ccc(S(=O)(=O)[O-])cc1.[Na+].[Na+].[Na+] (stereo not shown) [FD&C Yellow #5]
- Percent of Initial NaClO2 Remaining 5 Hours after Mixing [5]: 27%

Molecule: O=S(=O)([O-])c1ccc(N=Nc2c(O)ccc3cc(S(=O)(=O)[O-])ccc23)cc1.[Na+].[Na+] [FD&C Yellow #6]
- Percent of Initial NaClO2 Remaining 5 Hours after Mixing [5]: 18%

Molecule: NS(=O)(=O)O [Sulfamic Acid]
- Percent of Initial NaClO2 After 2 Hours ([6]; stabilizer level 0.25 Wt %): 97%
- Percent of Initial NaClO2 After 5 hours ([6]; stabilizer level 0.25 Wt %): 94%
- Percent of Initial NaClO2 After 2 Hours ([6]; stabilizer level 0.50 Wt %): 97%
- Percent of Initial NaClO2 After 5 hours ([6]; stabilizer level 0.50 Wt %): 94%
- Level of ClO2 after 1 hour ([3]; stabilizer level 0.25 Wt %): 17 ppm
- Level of ClO2 after 1 hour ([3]; stabilizer level 0.50 Wt %): 17 ppm
- Reduced Chlorite Demand Factor [2]: 4.5
- Percent of Initial NaClO2 Remaining 2 Hours after Mixing ([1]; pH 2.5): 98%
- Percent of Initial NaClO2 Remaining 5 Hours after Mixing ([1]; pH 2.5): 95%
- effect on rate of sodium chlorite consumption / chlorite longevity (in words) ([1]; pH 2.5): significantly impact the rate of sodium chlorite consumption
- Percent of Initial Colorant Remaining 2 Hours after Mixing [4]: 97%

Molecule: Aniline Sulfonic Acid
- Percent of Initial NaClO2 After 2 Hours ([1]; pH 2.5): 90%
- Percent of Initial NaClO2 After 5 hours ([1]; pH 2.5): 75%
- effect on rate of sodium chlorite consumption / chlorite longevity (in words) ([1]; pH 2.5): promote greater chlorite longevity
